Experimental data: US20250339569A1, “CARBONIC ANHYDRASE IX LIGANDS” (priority 2021, published 2025)
Where two headings read alike, the source gives them in different places. Starred links: 1 amine or outer side, 2 acyl side, 3 side chain; linkers in the order of their positions; H or OH if unused. Positions of bridges follow the written chain, without caps; N, C: chain ends. Non-standard residues stand in square brackets, D forms with d. Residues, ends and D or L forms follow the SMILES beside them. *: point of attachment. Phe(3-NHCO(CH2)3SO2NH2) = N[C@@H](Cc1cccc(NC(=O)CCCS(N)(=O)=O)c1)C(=O)O; DOTA = O=C(O)CN1CCN(CC(=O)O)CCN(CC(=O)*)CCN(CC(=O)O)CC1; Phe(3-CF3) = N[C@@H](Cc1cccc(C(F)(F)F)c1)C(=O)O; Nip(3R) = O=C([C@@H]1CCCN([*:1])C1)[*:2]; mXylylene = c1cc(C[*:1])cc(C[*:2])c1; X14 = O=C([C@H]1CCCN([*:1])C1)[*:2]; X2 = O=C(CN1CCC(N[*:1])CC1)[*:2]; X1 = O=C(CN1CCN([*:1])CC1)[*:2]; X39 = NS(=O)(=O)c1ccc(N*)cc1; X41 = NS(=O)(=O)c1cccc(N*)c1; Pip = O=C(O)[C@@H]1CCCCN1; Dap = NC[C@H](N)C(=O)O

What was measured:
[1] = biological target: T1, human carbonic anhydrase IX (hCAIX-Fc) (Homo sapiens, UniProt Q16790); assay: Surface plasmon resonance assay with hCAIX-Fc; assay type: binding; conditions: 25° C.; for t1/2 category (activity): SPR dissociation half-life, hCAIX-Fc; for Kd: SPR, hCAIX-Fc captured, read-out: pKD category (activity) (converted)
T1 construct: purchased SinoBliological (Sino Biological) 10107-H02H

[2] = biological target: T2, CAIX-expressing human HT-29 colorectal cancer cells (Homo sapiens, UniProt Q16790); assay: FACS binding assay (IC50 determination, competition with tracer 3BP-2776 or 3BP-4149); conditions: FACS binding assay, HT-29 cells, 4° C., 1 hour, read-out: pIC50 category (activity) (converted)
T2 construct: CAIX-expressing human HT-29 colorectal cancer cells; host or cells: HT-29 human colorectal cancer cells
Summary of the method: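 HT-29 cells in FACS buffer (PBS, 1% FCS) at 500.000 cells/ml were exposed to compounds competing with a labelled tracer, with biotinylated compounds detected by 1 μg/mL APC-streptavidin for 30 min on ice. APC/Cy5 median fluorescence was read by flow cytometry and IC50 derived by 4PL fit.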

[3] = competition with tracer 3BP-4149 (3 nM, Cy5-labeled)
[4] = competition with tracer 3BP-2776 (10 nM, biotin-labeled)

SMILES	t1/2 category (activity) [1]	Kd [1] [nM]	IC50 [2, 3] [nM]	IC50 [2, 4] [nM]
CC(C)C[C@@H]1NC(=O)[C@H](Cc2cccc(C(F)(F)F)c2)NC(=O)[C@H](CC(=O)O)NC(=O)[C@H]2CCCN2C(=O)[C@H](CCC(=O)O)NC(=O)[C@@H]2CSCc3cccc(c3)CSC[C@@H](C(N)=O)NC(=O)[C@H](CNC(=O)C[C@H](NC(=O)[C@@H](NC(=O)CN3CCC(NC(=O)CN4CCN(CC(=O)O)CCN(CC(=O)O)CCN(CC(=O)O)CC4)CC3)C(C)C)C(=O)N2)NC(=O)[C@H](Cc2c[nH]c3ccccc23)NC(=O)[C@H]([C@@H](C)O)NC1=O [3BP-4440] ({DOTA}-[X2]VDCE[dP]D[Phe(3-CF3)]LTW[Dap]C-NH2; lactam 3-12; linker 4-13 via mXylylene)	B (t1/2 between 5.1 and 15.0 minutes)	< 10	< 10	–
CC(C)C[C@@H]1NC(=O)[C@H](Cc2c[nH]c3ccccc23)NC(=O)[C@H](CCC(=O)Nc2cccc(S(N)(=O)=O)c2)NC(=O)[C@H]2CCCN2C(=O)[C@H](CCC(=O)O)NC(=O)[C@@H](NC(=O)[C@H](Cc2ccc(O)cc2)NC(=O)[C@@H](NC(=O)CN2CCC(NC(=O)CN3CCN(CC(=O)O)CCN(CC(=O)O)CCN(CC(=O)O)CC3)CC2)C(C)C)CSCc2cccc(c2)CSC[C@@H](C(N)=O)NC(=O)[C@H](CO)NC(=O)[C@H](Cc2c[nH]c3ccccc23)NC(=O)[C@H]([C@@H](C)O)NC1=O [3BP-4441] ({DOTA}-[X2]VYCE[dP]E(X41)WLTWSC-NH2; linker 4-13 via mXylylene)	A (t1/2>15.0 minutes)	< 10	10 to 79.4	–
CC(C)C[C@@H]1NC(=O)[C@H](Cc2c[nH]c3ccccc23)NC(=O)[C@H](CCC(=O)Nc2ccc(S(N)(=O)=O)cc2)NC(=O)[C@H]2CCCN2C(=O)[C@H](CCC(=O)O)NC(=O)[C@@H](NC(=O)[C@H](Cc2ccc(O)cc2)NC(=O)[C@@H](NC(=O)CN2CCC(NC(=O)CN3CCN(CC(=O)O)CCN(CC(=O)O)CCN(CC(=O)O)CC3)CC2)C(C)C)CSCc2cccc(c2)CSC[C@@H](C(N)=O)NC(=O)[C@H](CO)NC(=O)[C@H](Cc2c[nH]c3ccccc23)NC(=O)[C@H]([C@@H](C)O)NC1=O [3BP-4442] ({DOTA}-[X2]VYCE[dP]E(X39)WLTWSC-NH2; linker 4-13 via mXylylene)	A (t1/2>15.0 minutes)	< 10	10 to 79.4	–
CC(C)C[C@@H]1NC(=O)[C@H](Cc2cccc(NC(=O)CCCS(N)(=O)=O)c2)NC(=O)[C@H](CC(=O)O)NC(=O)[C@H]2CCCN2C(=O)[C@H](CCC(=O)O)NC(=O)[C@@H]2CSCc3cccc(c3)CSC[C@@H](C(N)=O)NC(=O)[C@H](CNC(=O)C[C@H](NC(=O)[C@@H](NC(=O)CN3CCC(NC(=O)CN4CCN(CC(=O)O)CCN(CC(=O)O)CCN(CC(=O)O)CC4)CC3)C(C)C)C(=O)N2)NC(=O)[C@H](Cc2c[nH]c3ccccc23)NC(=O)[C@H]([C@@H](C)O)NC1=O [3BP-4445] ({DOTA}-[X2]VDCE[dP]D[Phe(3-NHCO(CH2)3SO2NH2)]LTW[Dap]C-NH2; lactam 3-12; linker 4-13 via mXylylene)	A (t1/2>15.0 minutes)	< 10	< 10	–
CC(C)C[C@@H]1NC(=O)[C@H](Cc2c[nH]c3ccccc23)NC(=O)[C@H](CC(=O)O)NC(=O)[C@H]2CCCN2C(=O)[C@H](CCC(=O)O)NC(=O)[C@@H](NC(=O)[C@H](Cc2ccc(O)cc2)NC(=O)CN2CCN(C(=O)CN3CCN(CC(=O)O)CCN(CC(=O)O)CCN(CC(=O)O)CC3)CC2)CSCc2cccc(c2)CSC[C@@H](C(N)=O)NC(=O)[C@H](CO)NC(=O)[C@H](Cc2c[nH]c3ccccc23)NC(=O)[C@H]([C@@H](C)O)NC1=O [3BP-4446] ({DOTA}-[X1]YCE[dP]DWLTWSC-NH2; linker 3-12 via mXylylene)	C (t1/2 between 2.1 and 5.0 minutes)	< 10	10 to 79.4	–
CC(C)C[C@@H]1NC(=O)[C@H](Cc2cccc(NC(=O)CCCS(N)(=O)=O)c2)NC(=O)[C@H](CC(=O)O)NC(=O)[C@H]2CCCN2C(=O)[C@H](CCC(=O)O)NC(=O)[C@@H](NC(=O)[C@H](Cc2ccc(O)cc2)NC(=O)CN2CCN(C(=O)CN3CCN(CC(=O)O)CCN(CC(=O)O)CCN(CC(=O)O)CC3)CC2)CSCc2cccc(c2)CSC[C@@H](C(N)=O)NC(=O)[C@H](CO)NC(=O)[C@H](Cc2c[nH]c3ccccc23)NC(=O)[C@H]([C@@H](C)O)NC1=O [3BP-4448] ({DOTA}-[X1]YCE[dP]D[Phe(3-NHCO(CH2)3SO2NH2)]LTWSC-NH2; linker 3-12 via mXylylene)	A (t1/2>15.0 minutes)	< 10	–	< 10
CC(C)C[C@@H]1NC(=O)[C@H](Cc2cccc(NC(=O)CCCS(N)(=O)=O)c2)NC(=O)[C@H](CC(=O)O)NC(=O)[C@H]2CCCN2C(=O)[C@H](CCC(=O)O)NC(=O)[C@@H](NC(=O)[C@H](CCC(N)=O)NC(=O)CN2CCN(CC(=O)O)CCN(CC(=O)O)CCN(CC(=O)O)CC2)CSCc2cccc(c2)CSC[C@@H](C(N)=O)NC(=O)[C@H](CO)NC(=O)[C@H](Cc2c[nH]c3ccccc23)NC(=O)[C@H]([C@@H](C)O)NC1=O [3BP-4453]	A (t1/2>15.0 minutes)	< 10	–	< 10
CC(C)C[C@@H]1NC(=O)[C@H](Cc2cccc(NC(=O)CCCS(N)(=O)=O)c2)NC(=O)[C@H](CC(=O)O)NC(=O)[C@H]2CCCN2C(=O)[C@H](CCC(=O)O)NC(=O)[C@@H](NC(=O)[C@H](Cc2ccc(O)cc2)NC(=O)[C@H]2CCCN(C(=O)CN3CCN(CC(=O)O)CCN(CC(=O)O)CCN(CC(=O)O)CC3)C2)CSCc2cccc(c2)CSC[C@@H](C(N)=O)NC(=O)[C@H](CO)NC(=O)[C@H](Cc2c[nH]c3ccccc23)NC(=O)[C@H]([C@@H](C)O)NC1=O [3BP-4454] ({DOTA}-[X14]YCE[dP]D[Phe(3-NHCO(CH2)3SO2NH2)]LTWSC-NH2; linker 3-12 via mXylylene)	A (t1/2>15.0 minutes)	< 10	10 to 79.4	–
CC(C)C[C@@H]1NC(=O)[C@H](Cc2cccc(NC(=O)CCCS(N)(=O)=O)c2)NC(=O)[C@H](CC(=O)O)NC(=O)[C@H]2CCCN2C(=O)[C@H](CCC(=O)O)NC(=O)[C@@H](NC(=O)[C@H](Cc2ccc(O)cc2)NC(=O)[C@@H]2CCCN(C(=O)CN3CCN(CC(=O)O)CCN(CC(=O)O)CCN(CC(=O)O)CC3)C2)CSCc2cccc(c2)CSC[C@@H](C(N)=O)NC(=O)[C@H](CO)NC(=O)[C@H](Cc2c[nH]c3ccccc23)NC(=O)[C@H]([C@@H](C)O)NC1=O [3BP-4455] ({DOTA}-[Nip(3R)]YCE[dP]D[Phe(3-NHCO(CH2)3SO2NH2)]LTWSC-NH2; linker 3-12 via mXylylene)	A (t1/2>15.0 minutes)	< 10	–	< 10
CC(C)C[C@@H]1NC(=O)[C@H](Cc2cccc(NC(=O)CCCS(N)(=O)=O)c2)NC(=O)[C@H](CC(=O)O)NC(=O)[C@H]2CCCN2C(=O)[C@H](CCC(=O)O)NC(=O)[C@@H](NC(=O)[C@H](Cc2ccc(O)cc2)NC(=O)[C@@H]2CCCCN2C(=O)CN2CCN(CC(=O)O)CCN(CC(=O)O)CCN(CC(=O)O)CC2)CSCc2cccc(c2)CSC[C@@H](C(N)=O)NC(=O)[C@H](CO)NC(=O)[C@H](Cc2c[nH]c3ccccc23)NC(=O)[C@H]([C@@H](C)O)NC1=O [3BP-4456] ({DOTA}-[Pip]YCE[dP]D[Phe(3-NHCO(CH2)3SO2NH2)]LTWSC-NH2; linker 3-12 via mXylylene)	A (t1/2>15.0 minutes)	< 10	10 to 79.4	–
